The values below come from patent US6878736B1, “Histamine H3 receptor ligands” (James Black Foundation Limited, priority 1998, dated 2005).

Each structure is given as a SMILES string. Counter-ions that a name gives are not always drawn.

Assay [1] has as its target T1, Histamine H3 receptor (Cavia porcellus, UniProt Q9JI35). The assay is described as follows: Histamine H3 functional assay, guinea pig ileum (ileal longitudinal muscle, myenteric plexus). Further details: species or system tissue. To be noted: antagonist affinity from rightward shift of R-(α)-methylhistamine E/[A] curves (Schild), typical variance ±0.15 log units; for Kb: read-out: pKb (Guinea pig ileum) (converted). As for the experimental part:
• 1. J. Med. Chem 1994, 314. • 2. WO 97/29092 Histamine H3 Functional Assay—Guinea Pig Ileum
The biological activity of the compounds of the examples was measured using the ileal longitudinal muscle, myenteric plexus assay described by Paton and Aboo Zar (J. Physiol. 1968, 194, 13-33). Male Dunkin-Hartley guinea pigs (250-300 g) were employed. Briefly, a 50 cm portion of ileum proximal to the caecum was removed, after discarding the terminal 20 cm. Ileal segments (3 cm) were cleaned by passing Krebs-Henseleit buffer containing 3 μM mepyramine gently through the ileum using a Pasteur pipette (size: 13.8 cm length, 0.65 cm diameter). To avoid unnecessary damage to the tissue, Krebs-Henseleit buffer was passed through the ileal segment, while it was lying horizontally on a petri dish. Therefore, the ileum was not over-distended and the buffer flowed through with ease. Each segment was then passed over a Pasteur pipette and the longitudinal muscle layer and adhering myenteric plexus was teased away using moist cotton wool, by stroking tangentially away from the mesenteric attachment. The tissues were suspended in 20 ml organ baths containing Krebs-Henseleit buffer at 37±1° C. and gassed with […]. The tissues were ligated to two parallel stainless steel wires, situated between two platinum electrodes (0.76 cm length, 0.06 cm diameter). All measurements were recorded isometrically (Grass FTO3 transducer). Following an initial loading tension of 1 g, the tissues were stimulated with electrical pulses at a frequency of 0.1 Hz and a pulse duration of 0.5 msec, as described by Kosterlitz & Watt (Br. J. Pharmacol. 1968, 266276). Initially, the tissues were stimulated at supramaximal (1.3 fold times maximal) voltage for a period of 30 min and then the tissues were washed and re-stimulated. A “sighter dose” of the selective histamine H3-receptor agonist, R-(α)-methylhistamine (0.3 μM) (Arrang et al. Nature, 1987, 117-123), was administered. Upon generation of response, the “sighter dose” was removed from the tissues by “washout” (6 washes over 60 min) and during this period the electrical stimulation was switched off. The tissues were then re-stimulated and allowed to stabilise prior to the addition of drug treatments, which were allocated on a randomised block basis to the organ baths. Following the incubation period, a single cumulative E/[A] curve was obtained. The experimental E/[A] curve data was expressed as the percentage inhibition of the peak height of electrically-stimulated contraction. Antagonist affinity values were calculated from the degree of rightward shift of the R-(α)-methylhistamine E/[A] curves using Schild's methods (Arunlakshana & Schild Br. J. Pharmacol. 1959, 48-58). Typical variance in this assay is ±0.15 log units.

In assay [2] the target is T1, Histamine H3 receptor. The assay is described as follows: Histamine H3 radioligand binding assay, guinea pig cortex ([3H]-R-α-methylhistamine). To be noted: guinea pig cortex membranes, competition with 1 nM [3H]-R-α-methylhistamine; for Ki: read-out: pKi (Guinea pig cortex) (converted). Put shortly: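 Male Dunkin Hartley guinea pig cortical membranes incubated 165 min at 21±3 °C in 20 mM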

T1 sequence (Q9JI35 whole entry): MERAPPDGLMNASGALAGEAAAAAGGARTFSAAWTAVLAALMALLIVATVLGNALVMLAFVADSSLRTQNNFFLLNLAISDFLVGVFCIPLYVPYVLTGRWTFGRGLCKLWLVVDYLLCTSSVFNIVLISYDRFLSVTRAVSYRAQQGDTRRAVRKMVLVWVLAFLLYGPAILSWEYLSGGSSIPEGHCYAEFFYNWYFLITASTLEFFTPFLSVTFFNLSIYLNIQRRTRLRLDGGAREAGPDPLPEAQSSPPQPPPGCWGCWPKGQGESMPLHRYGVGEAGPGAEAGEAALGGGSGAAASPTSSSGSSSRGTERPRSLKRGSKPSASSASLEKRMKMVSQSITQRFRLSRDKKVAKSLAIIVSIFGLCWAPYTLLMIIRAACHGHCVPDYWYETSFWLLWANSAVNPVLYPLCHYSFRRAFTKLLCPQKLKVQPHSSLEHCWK

Take `N=C(NCCCCCN1CCCC1)NCCc1ccc(Cl)cc1` [Example 25, N-(2-(4-Chlorophenyl)ethyl)-N′-(5-pyrrolidin-1-yl-pentyl)-guanidine bis-hydrochloride]: the Kb on Histamine H3 receptor [1] was 79.4 nM. Besides, the Ki on Histamine H3 receptor [2] was 7.94 nM.

In the case of `Cl.Cl.N=C(NCCCCCN1CCCC1)NCC1CCCCC1` [Example 41, N-Cyclohexyl-methyl-N′-(5-pyrrolidin-1-yl-pentyl)-guanidine bis-hydrochloride], the “pKb (Guinea pig ileum)” value on Histamine H3 receptor [1] was found to be 7.5. For the same molecule, at Histamine H3 receptor [2], the “pKi (Guinea pig cortex)” value was 8.9.

For `N=C(NCCCN1CCCC1)NCc1ccc2[nH]cnc2c1` [Example 13, N-(1H-Benzimidazol-5-yl-methyl)-N′-(3-pyrrolidin-1-yl-propyl)-guanidine tris-hydrochloride], at Histamine H3 receptor [1], the Kb was 501 nM. In addition, on Histamine H3 receptor [2], the Ki was 20 nM.

With `C[C@@H](NC(=N)NCCCCN1CCCC1)C1CCCCC1` [Example 44, N-(1(R)-Cyclohexyl-ethyl)-N′-(4-pyrrolidin-1-yl-butyl)-guanidine bis-hydrochloride], at Histamine H3 receptor [1], the Kb was 25.1 nM. The Ki at Histamine H3 receptor [2] is 1.58 nM.

Turning to `CN1CCCC1CCCCCNS(=O)(=O)Cc1ccc(Cl)cc1` (stereo not drawn) [Example 105, N-(5-(1-Methyl-pyrrolidin-2S-yl)-pentyl)-(4-chlorophenyl)-methanesulfonamide], on Histamine H3 receptor [1], the Kb is 501 nM. Moreover, the Ki at Histamine H3 receptor [2] was 398 nM.

Regarding `O=S(=O)(CCCCN1CCCC1)c1ccc2ccccc2c1` [Example 88], the Kb on Histamine H3 receptor [1] was 1260 nM. Also, the Ki on Histamine H3 receptor [2] was 631 nM.

For the molecule `Cl.Cl.N=C(NCCCCCCN1CCCC1)NCC12CC3CC(CC(C3)C1)C2` [Example 31, N-Adamantan-1-yl-methyl-N′-(6-pyrrolidin-1-yl-hexyl)-guanidine bis-hydrochloride], the “pKb (Guinea pig ileum)” value on Histamine H3 receptor [1] was 8.0. For the same molecule, the “pKi (Guinea pig cortex)” value at Histamine H3 receptor [2] (bis-hydrochloride) stood at 8.4.

Regarding `N=C(NCCN1CCCC1)NCc1ccc(Cl)cc1` [Example 16, N-(4-Chlorobenzyl)-N′-(2-pyrrolidin-1-yl-ethyl)-guanidine bis-hydrochloride], the Kb on Histamine H3 receptor [1] is 3980 nM. In addition, the Ki at Histamine H3 receptor [2] was 631 nM.

Consider `O=S(=O)(NCCN1CCCC1)c1ccc2ccccc2c1` [Example 81, N-(2-Pyrrolidin-1-yl-ethyl)-2-naphthalenesulfonamide], for which the Kb at Histamine H3 receptor [1] is 1260 nM. The Ki on Histamine H3 receptor [2] is 126 nM.

With `N=C(NCCCCN1CCCC1)NCc1ccc(Cl)cc1` [Example 17], on Histamine H3 receptor [1], the Kb is 50.1 nM. Moreover, at Histamine H3 receptor [2], the Ki is 5.01 nM.

As to `N=C(NCCCCCN1CCCC1)NCc1ccc2ccccc2c1` [Example 53, N-(Naphthalen-2-yl-methyl)-N′-(5-pyrrolidin-1-yl-pentyl)guanidine bis-hydrochloride], the Kb at Histamine H3 receptor [1] was 79.4 nM. The Ki on Histamine H3 receptor [2] was 7.94 nM.

Take `O=S(=O)(NCCCN1CCCC1)NCc1ccc(Cl)cc1` [Example 135, N-(4-Chlorobenzyl)-N′-(3-pyrrolidin-1-yl-propyl)-sulfamide]: the Kb at Histamine H3 receptor [1] is 631 nM. The Ki at Histamine H3 receptor [2] was 316 nM.

`C[C@H](NC(=N)NCCCCCN1CCCC1)c1ccccc1` [Example 49, N-(1(S)-Phenyl-ethyl)-N′-(5-pyrrolidin-1-yl-pentyl)-guanidine bis-hydrochloride]: the Kb on Histamine H3 receptor [1] was 31.6 nM. In addition, the Ki on Histamine H3 receptor [2] was 6.31 nM.

For `CC(C)CCNC(=N)NCCCCCN1CCCC1` [Example 66], on Histamine H3 receptor [1], the Kb is 39.8 nM. For the same molecule, the Ki at Histamine H3 receptor [2] was 2.51 nM.

For the molecule `N=C(NCCCN1CCCC1)NCCc1ccc(Cl)cc1` [Example 20, N-(2(4-Chlorophenyl)ethyl)-N′-(3-pyrrolidin-1-yl-propyl)-guanidine bis-hydrochloride], the Kb on Histamine H3 receptor [1] is 200 nM. Besides, the Ki on Histamine H3 receptor [2] is 1 nM.

With `CN1CCC[C@H]1CCCNS(=O)(=O)N(C)Cc1ccc(Cl)cc1` [Example 121, N-(4-Chlorobenzyl)-N-methyl-N′-(3-(1-methyl-pyrrolidin-2S-yl)-propyl)-sulfamide], the Kb at Histamine H3 receptor [1] was 1000 nM. At Histamine H3 receptor [2], the Ki is 316 nM.

In the case of `CN1CCC[C@H]1CCCNS(=O)(=O)Cc1ccc(Cl)cc1` [Example 99], at Histamine H3 receptor [1], the Kb was 316 nM. The Ki on Histamine H3 receptor [2] is 200 nM.

Turning to `Cl.Cl.N=C(NCCOCCN1CCCC1)NCC12CC3CC(CC(C3)C1)C2` [Example 59, N-Adamantan-1-yl-methyl-N′-(2-(2-pyrrolidin-1-yl-ethoxy)-ethyl)-guanidine bis-hydrochloride], on Histamine H3 receptor [1], the “pKb (Guinea pig ileum)” value was 7.0. The “pKi (Guinea pig cortex)” value at Histamine H3 receptor [2] is 8.0.

As to `C[C@@H](c1ccccc1)N(CCCCCN1CCCC1)C(=N)N` [Example 75, N-(1-(S)-Phenyl-ethyl)-N-(5-pyrrolidin-1-yl-pentyl)-guanidine bis-hydrochloride], the Kb at Histamine H3 receptor [1] was 126 nM. Further, on Histamine H3 receptor [2], the Ki was 25.1 nM.

Take `N=C(NCc1ccc(Cl)cc1)N(CCCCN1CCCC1)Cc1ccc(Cl)cc1` [Example 52, N,N′-Bis-(4-Chlorobenzyl)-N-(4-pyrrolidin-1-yl-butyl)-guanidine bis-hydrochloride]: on Histamine H3 receptor [1], the Kb is 316 nM. Moreover, at Histamine H3 receptor [2], the Ki was 316 nM.

For the molecule `O=S(=O)(Cc1ccc(Cl)cc1)NCCCN1CCCC1` [Example 106, N-(3-Pyrrolidin-1-yl-propyl)-(4-chlorophenyl)-methanesulfonamide], the Kb at Histamine H3 receptor [1] was 631 nM. The Ki on Histamine H3 receptor [2] was 1000 nM.

In the case of `N=C(NCCCc1ccc(Cl)cc1)NCCCN1CCCC1` [Example 21, N-(3-(4-Chlorophenyl)propyl)-N′-(3-pyrrolidin-1-yl-propyl)-guanidine bis-hydrochloride], the Kb on Histamine H3 receptor [1] was 158 nM. Also, the Ki on Histamine H3 receptor [2] is 50.1 nM.

On to `N=C(NCCCN1CCCC1)NCc1ccccc1Br` [Example 11, N-(2-Bromobenzyl)-N′-(3-pyrrolidin-1-yl-propyl)-guanidine bis-hydrochloride], for which, on Histamine H3 receptor [1], the Kb is 501 nM. Further, the Ki on Histamine H3 receptor [2] was 39.8 nM.

For the molecule `CN1CCN(CCCCCNC(=N)NCC23CC4CC(CC(C4)C2)C3)CC1.Cl.Cl.Cl` [Example 63, N-Adamantan-1-yl-methyl-N′-(5-(4-methyl-piperazin-1-yl)-pentyl)-guanidine tris-hydrochloride], the “pKb (Guinea pig ileum)” value on Histamine H3 receptor [1] amounted to 7.4. In addition, the “pKi (Guinea pig cortex)” value at Histamine H3 receptor [2] was found to be 7.7.

Turning to `O=S(=O)(NCCCCN1CCCC1)N(CCCCN1CCCC1)Cc1ccc(Cl)cc1` [Example 140, N-(4-Chlorobenzyl)-N N′-bis(4-pyrrolidin-1-yl-butyl)-sulfamide], the Kb at Histamine H3 receptor [1] was 316 nM. Also, on Histamine H3 receptor [2], the Ki is 7.94 nM.

Take `N=C(N)NCCCN1CCCC1` [Example 1, N-(3-Pyrrolidin-1-yl-propyl)-guanidine bis-hydrochloride]: the Kb at Histamine H3 receptor [1] was 3980 nM. Also, the Ki at Histamine H3 receptor [2] is 63.1 nM.

Take `N=C(N)N(CCCCCCN1CCCC1)CCC12CC3CC(CC(C3)C1)C2` [Example 78, N-(2-Adamantan-1-yl-ethyl)-N-(6-pyrrolidin-1-yl-hexyl)-guanidine bis-hydrochloride]: the Kb on Histamine H3 receptor [1] is 31.6 nM. Besides, the Ki on Histamine H3 receptor [2] was 79.4 nM.

For the molecule `Cl.Cl.N=C(NCCCCCN1CCCCCCC1)NCC12CC3CC(CC(C3)C1)C2` [Example 62, N-Adamantan-1-yl-methyl-N′-(5-azocan-1-yl-pentyl)-guanidine bis-hydrochloride], the “pKb (Guinea pig ileum)” value at Histamine H3 receptor [1] worked out at 7.4. Further, the “pKi (Guinea pig cortex)” value on Histamine H3 receptor [2] is 7.5.

Turning to `N=C(NCCCCCN1CCCC1)NCc1ccccc1` [Example 47, N-Benzyl-N′-(5-pyrrolidin-1-yl-pentyl)-guanidine bis-hydrochloride], the Kb on Histamine H3 receptor [1] is 50.1 nM. The Ki on Histamine H3 receptor [2] is 3.98 nM.

`COC(=O)c1ccc(CNC(N)=NCCCN2CCCC2)cc1` [Example 14, 4-(N′-(3-Pyrrolidin-1-yl-propyl)-guanidinomethyl)-benzoic acid methyl ester bis-hydrochloride]: the Kb on Histamine H3 receptor [1] is 1000 nM. Moreover, the Ki on Histamine H3 receptor [2] was 25.1 nM.

`N=C(NCCCCN1CCCC1)NCCC12CC3CC(CC(C3)C1)C2` [Example 35, N-(2-Adamantan-1-yl-ethyl)-N′-(4-pyrrolidin-1-yl-butyl)-guanidine bis-hydrochloride]: the Kb at Histamine H3 receptor [1] is 20 nM. Moreover, the Ki on Histamine H3 receptor [2] was 7.94 nM.
